Source: ChEMBL document CHEMBL3734719, “Discovery of highly potent triazoleantifungal agents with piperidine-oxadiazole side chains” (2015)
Values after ≈ are worked out from the molar mass of the structure shown. Active and inactive are the calls of the source. The rule behind the calls is not given here.

Experiments:
[1] = test system: Nannizzia gypsea; assay: Antifungal activity against Microsporum gypseum after 48 hrs by spectrophotometry; type: functional
[2] = test system: Candida albicans; assay: Antifungal activity against fluconazole-resistant Candida albicans 0710922 after 48 hrs by spectrophotometry; type: functional; settings: Candida albicans, 0710922, 48 h
[3] = test system: Trichophyton rubrum; assay: Antifungal activity against Trichophyton rubrum after 48 hrs by spectrophotometry; type: functional
[4] = test system: Candida albicans; assay: Antifungal activity against fluconazole-resistant Candida albicans 103 after 48 hrs by spectrophotometry; type: functional; settings: Candida albicans, 103, 48 h
[5] = test system: Candida parapsilosis; assay: Antifungal activity against Candida parapsilosis after 48 hrs by spectrophotometry; type: functional; settings: Lodderomyces parapsilosis
[6] = test system: Nakaseomyces glabratus; assay: Antifungal activity against Candida glabrata after 48 hrs by spectrophotometry; type: functional
[7] = test system: Aspergillus fumigatus; assay: Antifungal activity against Aspergillus fumigatus after 48 hrs by spectrophotometry; type: functional
[8] = test system: Candida albicans; assay: Antifungal activity against Candida albicans after 48 hrs by spectrophotometry; type: functional
[9] = test system: Candida albicans; assay: Antifungal activity against fluconazole-resistant Candida albicans 805 after 48 hrs by spectrophotometry; type: functional; settings: Candida albicans, 805, 48 h
[10] = test system: Cryptococcus neoformans; assay: Antifungal activity against Cryptococcus neoformans after 48 hrs by spectrophotometry; type: functional
[11] = test system: Candida albicans; assay: Antifungal activity against Candida albicans after 48 hrs by spectrophotometry relative to fluconazole; type: functional
[12] = test system: Candida albicans; assay: Antifungal activity against Candida albicans SC5314 assessed as inhibition of yeast to hypha transisition at >1 ug/ml after 3 hrs measured as increase in pseudohyphal cells; type: functional, organism-based
[13] = test system: Candida albicans; assay: Antifungal activity against Candida albicans SC5314 assessed as inhibition of yeast to hypha transisition at >1 ug/ml after 3 hrs measured as decrease in hyphae; type: functional, organism-based
[14] = test system: Caenorhabditis elegans; assay: Growth inhibition of Caenorhabditis elegans at 1 to 160 ug/ml after 6 days; type: functional, organism-based
[15] = test system: Candida albicans; assay: Antifungal activity against Candida albicans SC5314 assessed as inhibition of yeast to hypha transisition at >1 ug/ml after 3 hrs measured as increase in yeast cells; type: functional, organism-based

| Structure (SMILES) | MIC80 [1] | MIC50 [2] | MIC80 [2] | MIC80 [3] | MIC50 [4] | MIC80 [4] | MIC80 [5] | MIC80 [6] | MIC80 [7] | MIC80 [8] | MIC50 [9] | MIC80 [9] | MIC80 [10] | Ratio [11] | inhibition [12] | inhibition [13] | inhibition [14] | inhibition [15] |
| --- | --- | --- | --- | --- | --- | --- | --- | --- | --- | --- | --- | --- | --- | --- | --- | --- | --- | --- |
| OC(Cn1cncn1)(Cn1cncn1)c1ccc(F)cc1F [FLUCONAZOLE] | 32 µg/mL (≈ 104 µM) | 512 µg/mL (≈ 1670 µM) | > 1020 µg/mL | 2 µg/mL (≈ 6.53 µM) | 256 µg/mL (≈ 836 µM) | > 1020 µg/mL | 2 µg/mL (≈ 6.53 µM) | 4 µg/mL (≈ 13.1 µM) | 4 µg/mL (≈ 13.1 µM) | 0.25 µg/mL (≈ 0.816 µM) | 256 µg/mL (≈ 836 µM) | > 1020 µg/mL | 0.25 µg/mL (≈ 0.816 µM) |  |  |  |  |  |
| CCc1ccc(-c2nnc(C3CCN(CC(O)(Cn4cncn4)c4ccc(F)cc4F)CC3)o2)cc1 (stereo not drawn) | 4 µg/mL (≈ 8.09 µM) |  |  | 4 µg/mL (≈ 8.09 µM) |  |  | 2 µg/mL (≈ 4.04 µM) | 4 µg/mL (≈ 8.09 µM) | 4 µg/mL (≈ 8.09 µM) | 0.5 µg/mL (≈ 1.01 µM) |  |  | 2 µg/mL (≈ 4.04 µM) |  |  |  |  |  |
| COc1ccc(-c2nnc(C3CCN(CC(O)(Cn4cncn4)c4ccc(F)cc4F)CC3)o2)cc1 (stereo not drawn) | 1 µg/mL (≈ 2.01 µM) |  |  | 1 µg/mL (≈ 2.01 µM) |  |  | 1 µg/mL (≈ 2.01 µM) | 2 µg/mL (≈ 4.03 µM) | 2 µg/mL (≈ 4.03 µM) | 0.063 µg/mL (≈ 0.127 µM) |  |  | 0.5 µg/mL (≈ 1.01 µM) |  |  |  |  |  |
| Cc1ccccc1-c1nnc(C2CCN(CC(O)(Cn3cncn3)c3ccc(F)cc3F)CC2)o1 (stereo not drawn) | 16 µg/mL (≈ 33.3 µM) |  |  | 16 µg/mL (≈ 33.3 µM) |  |  | 4 µg/mL (≈ 8.32 µM) | 8 µg/mL (≈ 16.6 µM) | 8 µg/mL (≈ 16.6 µM) | 0.125 µg/mL (≈ 0.26 µM) |  |  | 4 µg/mL (≈ 8.32 µM) |  |  |  |  |  |
| OC(CN1CCC(c2nc(-c3ccc(C(F)(F)F)cc3F)no2)CC1)(Cn1cncn1)c1ccc(F)cc1F (stereo not drawn) | 0.5 µg/mL (≈ 0.905 µM) |  |  | 1 µg/mL (≈ 1.81 µM) |  |  | 2 µg/mL (≈ 3.62 µM) | 4 µg/mL (≈ 7.24 µM) | 4 µg/mL (≈ 7.24 µM) | 1 µg/mL (≈ 1.81 µM) |  |  | 2 µg/mL (≈ 3.62 µM) |  |  |  |  |  |
| OC(CN1CCC(c2nnc(-c3ccccc3)o2)CC1)(Cn1cncn1)c1ccc(F)cc1F (stereo not drawn) | 1 µg/mL (≈ 2.14 µM) |  |  | 1 µg/mL (≈ 2.14 µM) |  |  | 0.5 µg/mL (≈ 1.07 µM) | 2 µg/mL (≈ 4.29 µM) | 2 µg/mL (≈ 4.29 µM) | 0.125 µg/mL (≈ 0.268 µM) |  |  | 0.25 µg/mL (≈ 0.536 µM) |  |  |  |  |  |
| OC(CN1CCC(c2nnc(-c3ccncc3)o2)CC1)(Cn1cncn1)c1ccc(F)cc1F (stereo not drawn) | 4 µg/mL (≈ 8.56 µM) |  |  | 32 µg/mL (≈ 68.5 µM) |  |  | 16 µg/mL (≈ 34.2 µM) | 16 µg/mL (≈ 34.2 µM) | 16 µg/mL (≈ 34.2 µM) | 2 µg/mL (≈ 4.28 µM) |  |  | 4 µg/mL (≈ 8.56 µM) |  |  |  |  |  |
| OC(CN1CCC(c2nnc(-c3ccc(C(F)(F)F)cc3)o2)CC1)(Cn1cncn1)c1ccc(F)cc1F (stereo not drawn) | 1 µg/mL (≈ 1.87 µM) | 0.125 µg/mL (≈ 0.234 µM) | 16 µg/mL (≈ 29.9 µM) | 1 µg/mL (≈ 1.87 µM) | 0.25 µg/mL (≈ 0.468 µM) | 8 µg/mL (≈ 15 µM) | 0.5 µg/mL (≈ 0.935 µM) | 2 µg/mL (≈ 3.74 µM) | 2 µg/mL (≈ 3.74 µM) | 0.031 µg/mL (≈ 0.058 µM) | 0.0625 µg/mL (≈ 0.117 µM) | 16 µg/mL (≈ 29.9 µM) | 0.25 µg/mL (≈ 0.468 µM) | 8 | Active | Active | inactive | Active |
| O=[N+]([O-])c1ccc(-c2nnc(C3CCN(CC(O)(Cn4cncn4)c4ccc(F)cc4F)CC3)o2)cc1 (stereo not drawn) | 2 µg/mL (≈ 3.91 µM) |  |  | 2 µg/mL (≈ 3.91 µM) |  |  | 2 µg/mL (≈ 3.91 µM) | 4 µg/mL (≈ 7.82 µM) | 4 µg/mL (≈ 7.82 µM) | 0.25 µg/mL (≈ 0.489 µM) |  |  | 1 µg/mL (≈ 1.96 µM) |  |  |  |  |  |
| OC(CN1CCC(c2nnc(-c3c(F)cccc3F)o2)CC1)(Cn1cncn1)c1ccc(F)cc1F (stereo not drawn) | 2 µg/mL (≈ 3.98 µM) |  |  | 2 µg/mL (≈ 3.98 µM) |  |  | 0.5 µg/mL (≈ 0.995 µM) | 0.5 µg/mL (≈ 0.995 µM) | 0.5 µg/mL (≈ 0.995 µM) | 0.063 µg/mL (≈ 0.125 µM) |  |  | ≤ 0.125 µg/mL |  |  |  |  |  |
| OC(CN1CCC(c2nnc(-c3cccnc3)o2)CC1)(Cn1cncn1)c1ccc(F)cc1F (stereo not drawn) | 4 µg/mL (≈ 8.56 µM) |  |  | 4 µg/mL (≈ 8.56 µM) |  |  | 1 µg/mL (≈ 2.14 µM) | 4 µg/mL (≈ 8.56 µM) | 4 µg/mL (≈ 8.56 µM) | 0.125 µg/mL (≈ 0.267 µM) |  |  | 0.5 µg/mL (≈ 1.07 µM) |  |  |  |  |  |
| OC(CN1CCC(c2nnc(-c3ccc(Cl)cc3)o2)CC1)(Cn1cncn1)c1ccc(F)cc1F (stereo not drawn) | 64 µg/mL (≈ 128 µM) |  |  | 8 µg/mL (≈ 16 µM) |  |  | 4 µg/mL (≈ 7.99 µM) | 8 µg/mL (≈ 16 µM) | 8 µg/mL (≈ 16 µM) | 0.5 µg/mL (≈ 0.998 µM) |  |  | 1 µg/mL (≈ 2 µM) |  |  |  |  |  |
| OC(CN1CCC(c2nc(-c3cccnc3)no2)CC1)(Cn1cncn1)c1ccc(F)cc1F (stereo not drawn) | 0.5 µg/mL (≈ 1.07 µM) |  |  | 1 µg/mL (≈ 2.14 µM) |  |  | 0.25 µg/mL (≈ 0.535 µM) | 0.125 µg/mL (≈ 0.267 µM) | 0.125 µg/mL (≈ 0.267 µM) | 0.063 µg/mL (≈ 0.135 µM) |  |  | 0.125 µg/mL (≈ 0.267 µM) |  |  |  |  |  |
